Measurements taken from ChEMBL document CHEMBL1201862, “PubChem BioAssay data set” (2004).
Values joined by “and” are separate entries in the source; they are usually repeats but may differ in a detail not shown here. Equal values may be shown once.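 In this assay, cells in 96-well plates receive the compound at five concentrations for 48 hours. Endpoints are linearly interpolated between the surrounding concentrations. At the GI50, growth is halved.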 Active and inactive are the calls of the source. Cut-off read from the data, not from the text of the source: active = GI50 up to about 1.1 µM and inactive = higher.

Tests used:
Assay in all cases: inhibition of tumour cell growth, NCI panel, 48 h
786-0 = tested on: 786-0
A498 = tested on: A498
A549 = tested on: A549
CAKI-1 = tested on: CAKI-1
DMS-273 = tested on: DMS-273
HL-60 = tested on: HL-60
HOP-92 = tested on: HOP-92
HT-29 = tested on: HT-29
LOX IMVI = tested on: LOX IMVI
MOLT-4 = tested on: MOLT-4
NCI-H226 = tested on: NCI-H226
RPMI-8226 = tested on: RPMI-8226
SF-295 = tested on: SF-295
SK-MEL-2 = tested on: SK-MEL-2
TK-10 = tested on: TK-10
M14 = tested on: M14
OVCAR-4 = tested on: OVCAR-4
Hs-578T = tested on: Hs-578T
MDA-MB-231 = tested on: MDA-MB-231
MDA-MB-435 = tested on: MDA-MB-435

Measured: GI50

Cc1nc(-n2nc(-c3ccccc3)cc2-c2ccccc2)sc1C(=O)/C=C/c1ccc(Cl)cc1
inactive: 786-0 14.4 µM | A498 23.2 µM | A549 19.5 µM | CAKI-1 17.5 µM | DMS-273 28.5 µM | HL-60 14.5 µM | HOP-92 18.4 µM | HT-29 14.4 µM | LOX IMVI 13.9 µM | MOLT-4 11.7 µM | NCI-H226 16 µM | RPMI-8226 5.66 µM | SF-295 15.3 µM | SK-MEL-2 19.6 µM | TK-10 38.1 µM

C/C(=N\NC(=O)c1ccccc1O)C1=CNc2ccccc2S1
inactive: 786-0 4.71 µM | A498 3.8 µM | A549 3.63 µM | CAKI-1 6.38 µM | DMS-273 3.1 µM | HL-60 3.54 µM | HT-29 7.85 µM | LOX IMVI 3.3 µM | M14 6.65 µM | MOLT-4 2.08 µM | NCI-H226 4.35 µM | OVCAR-4 5.85 µM | RPMI-8226 4.9 µM | SF-295 4.01 µM | SK-MEL-2 2.15 µM | TK-10 5.57 µM

Cn1ncc(=S)[nH]c1=S
inactive: 786-0 > 100 µM | A498 > 100 µM | A549 > 100 µM | DMS-273 > 100 µM | HOP-92 > 100 µM | LOX IMVI > 100 µM | M14 > 100 µM | MOLT-4 > 100 µM | NCI-H226 > 100 µM | OVCAR-4 > 100 µM | RPMI-8226 > 100 µM | SF-295 > 100 µM | SK-MEL-2 > 100 µM | TK-10 > 100 µM

CN(C)C(=N)NC(N)=S
inactive: 786-0 > 100 µM | A498 > 100 µM | A549 > 100 µM | CAKI-1 > 100 µM | DMS-273 > 100 µM | HL-60 > 100 µM | HOP-92 > 100 µM | HT-29 > 100 µM | LOX IMVI > 100 µM | M14 > 100 µM | MOLT-4 > 100 µM | NCI-H226 > 100 µM | OVCAR-4 > 100 µM | RPMI-8226 > 100 µM | SF-295 > 100 µM | TK-10 > 100 µM

COc1ccc(N2C(=O)c3c(c4[nH]c5ccccc5c4c4ccc(C(C)(C)C)cc34)C2=O)cc1
inactive: 786-0 28.4 µM | A498 40.5 µM | A549 47.1 µM | CAKI-1 42 µM | DMS-273 41.3 µM | HOP-92 14.7 µM | LOX IMVI > 100 µM | M14 40.3 µM | MOLT-4 21.6 µM | NCI-H226 35.8 µM | OVCAR-4 20.3 µM | SF-295 31.8 µM | SK-MEL-2 26.2 µM | TK-10 51.4 µM

Cc1ccc(S(=O)(=O)NNS(C)(=O)=O)cc1
inactive: 786-0 > 100 µM | A549 > 100 µM | CAKI-1 > 100 µM | DMS-273 > 100 µM | HT-29 > 100 µM | LOX IMVI > 100 µM | M14 > 100 µM | MOLT-4 > 100 µM | OVCAR-4 > 100 µM | RPMI-8226 > 100 µM | SF-295 > 100 µM | SK-MEL-2 > 100 µM | TK-10 > 100 µM

CCOc1ccccc1NC(=O)CCc1n[nH]c(=S)o1
inactive: 786-0 > 100 µM | A549 > 100 µM | CAKI-1 > 100 µM | DMS-273 > 100 µM | HL-60 > 100 µM | HOP-92 > 100 µM | HT-29 > 100 µM | LOX IMVI > 100 µM | M14 > 100 µM | MOLT-4 > 100 µM | NCI-H226 > 100 µM | RPMI-8226 > 100 µM | SF-295 > 100 µM | SK-MEL-2 > 100 µM | TK-10 > 100 µM

O=c1cnc2cc3ccccc3cc2[nH]1
inactive: 786-0 > 100 µM | A498 > 100 µM | A549 > 100 µM | CAKI-1 > 100 µM | HL-60 > 100 µM | HOP-92 > 100 µM | HT-29 > 100 µM | Hs-578T > 100 µM | LOX IMVI > 100 µM | M14 > 100 µM | MDA-MB-231 75.7 µM | MDA-MB-435 > 100 µM | MOLT-4 > 100 µM | NCI-H226 > 100 µM | OVCAR-4 > 100 µM | RPMI-8226 > 100 µM | SF-295 > 100 µM | SK-MEL-2 > 100 µM | TK-10 > 100 µM

CCOC(=O)C1Oc2ccc([N+](=O)[O-])cc2C1(C)O (configuration not stated)
inactive: 786-0 > 100 µM | A498 > 100 µM | A549 > 100 µM | DMS-273 > 100 µM | HL-60 > 100 µM | HOP-92 > 100 µM | HT-29 > 100 µM | LOX IMVI > 100 µM | M14 > 100 µM | MOLT-4 > 100 µM | NCI-H226 > 100 µM | OVCAR-4 > 100 µM | RPMI-8226 > 100 µM | SF-295 > 100 µM | SK-MEL-2 > 100 µM | TK-10 > 100 µM

C=CCOC1=C2CC[C@H](O)[C@@]2(C)CCC1=O
inactive: 786-0 > 100 µM | A498 > 100 µM | A549 > 100 µM | CAKI-1 > 100 µM | DMS-273 > 100 µM | HL-60 > 100 µM | HOP-92 > 100 µM | HT-29 > 100 µM | LOX IMVI > 100 µM | M14 > 100 µM | MOLT-4 > 100 µM | NCI-H226 > 100 µM | OVCAR-4 > 100 µM | RPMI-8226 > 100 µM | SF-295 > 100 µM | TK-10 > 100 µM

CC(=O)OCC1OC(n2c(=S)n(-c3ccccc3)c(=O)c3cc(Br)ccc32)C(OC(C)=O)C(OC(C)=O)C1OC(C)=O (configuration not stated)
inactive: 786-0 > 100 µM | A498 > 100 µM | A549 > 100 µM | CAKI-1 > 100 µM | DMS-273 > 100 µM | HL-60 > 100 µM | HT-29 > 100 µM | LOX IMVI > 100 µM | M14 > 100 µM | MOLT-4 > 100 µM and 94.6 µM | NCI-H226 > 100 µM | RPMI-8226 > 100 µM

CC1=Nn2c(nnc2-c2ccccc2Cl)NC(C)(C)C1
inactive: 786-0 > 100 µM | A549 > 100 µM | CAKI-1 > 100 µM | DMS-273 > 100 µM | HL-60 50.9 µM | HOP-92 > 100 µM | HT-29 > 100 µM | LOX IMVI > 100 µM | M14 > 100 µM | MOLT-4 47.3 µM | NCI-H226 > 100 µM | OVCAR-4 > 100 µM | RPMI-8226 26.1 µM | SF-295 > 100 µM | SK-MEL-2 > 100 µM | TK-10 > 100 µM

C=CC/C=C/C/C=C/CCCCCCCc1cccc(O)c1C(=O)O
inactive: 786-0 > 100 µM | A549 33 µM | CAKI-1 32.1 µM | DMS-273 45.4 µM | HL-60 > 100 µM | HOP-92 23.7 µM | HT-29 48.8 µM | LOX IMVI 44.7 µM | M14 82.8 µM | MOLT-4 42.8 µM | OVCAR-4 42.2 µM | RPMI-8226 40.2 µM | SF-295 > 100 µM | SK-MEL-2 49 µM | TK-10 54.7 µM
